Experimental data published in ChEMBL document CHEMBL1141080, “Discovery of potent orally active thrombin receptor (protease activated receptor 1) antagonists as novel antithrombotic agents” (J Med Chem, 2005).

Experiments:
[1] = biological target: T1, Proteinase-activated receptor 1 (Homo sapiens, UniProt P25116)
T1 sequence (P25116 whole entry): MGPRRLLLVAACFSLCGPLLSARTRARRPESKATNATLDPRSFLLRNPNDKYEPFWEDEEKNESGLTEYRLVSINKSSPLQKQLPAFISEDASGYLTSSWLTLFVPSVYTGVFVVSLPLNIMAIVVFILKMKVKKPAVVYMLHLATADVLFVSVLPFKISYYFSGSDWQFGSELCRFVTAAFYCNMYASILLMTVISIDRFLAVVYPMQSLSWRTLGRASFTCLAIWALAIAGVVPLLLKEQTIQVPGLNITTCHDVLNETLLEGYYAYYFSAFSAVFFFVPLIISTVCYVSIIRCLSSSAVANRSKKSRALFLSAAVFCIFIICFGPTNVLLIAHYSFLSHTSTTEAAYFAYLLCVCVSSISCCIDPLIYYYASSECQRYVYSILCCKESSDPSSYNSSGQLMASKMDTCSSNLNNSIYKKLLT
Description: (§1) In vitro inhibitory concentration against human protease activated receptor 1 using [3H]-haTRAP as radioligand

[2] = Area under curve after oral administration to rats in 20% hydroxypropyl-beta-cyclodextrin after 4 hours; settings: rat, in vivo
[3] = Maximum plasma concentration after oral administration to rats in 20% hydroxypropyl-beta-cyclodextrin after 4 hours; settings: rat
[4] = Bioavailability of compound upon oral administration in rat; type: ADME, organism-based; settings: in vivo
[5] = Half life of compound upon iv administration in rat; type: ADME, organism-based; settings: in vivo
[6] = Half life after intravenous administration in monkey; type: ADME, organism-based; settings: cercopithecidae, in vivo
[7] = Bioavailability of compound after oral administration in rat at a dose of 10 mg/kg; type: ADME, organism-based; settings: in vivo
[8] = Bioavailability of compound after oral administration in monkey; settings: cercopithecidae, in vivo
[9] = Maximum plasma concentration upon oral administration in rat
[10] = Half life upon intravenous administration in rat; type: ADME, organism-based; settings: in vivo
[11] = biological target: T1, Proteinase-activated receptor 1; remark: listed apart in the source
Description: as §1

IC50 [1]	SMILES	other results
27 nM	C[C@H]1OC(=O)[C@@H]2C[C@@H]3CCCC[C@H]3[C@H](/C=C/c3ccc(-c4ccccc4)cn3)[C@H]12	AUC at 4 h [2]: 0.917 µM·h; Cmax [3]: 453 nM
100 nM	C[C@H]1OC(=O)[C@@H]2C[C@@H]3CCCC[C@H]3[C@H](/C=C/c3ccc(-c4cccc(S(N)(=O)=O)c4)cn3)[C@H]12	–
13 nM	Cc1cccc(-c2ccc(/C=C/[C@H]3[C@@H]4CCCC[C@H]4C[C@H]4C(=O)O[C@H](C)[C@@H]34)nc2)c1	AUC at 4 h [2]: 0.331 µM·h; Cmax [3]: 380 nM
19 nM	CC(C)c1cccc(-c2ccc(/C=C/[C@H]3[C@@H]4CCCC[C@H]4C[C@H]4C(=O)O[C@H](C)[C@@H]34)nc2)c1	AUC at 4 h [2]: 0.258 µM·h; Cmax [3]: 289 nM
–	CCc1cccc(/C=C/[C@H]2[C@@H]3CCCC[C@H]3C[C@H]3C(=O)O[C@H](C)[C@@H]23)n1	bioavailability [4]: < 3%; half-life [5]: < 1 h
35 nM	C[C@H]1OC(=O)[C@@H]2C[C@@H]3CCCC[C@H]3[C@H](/C=C/c3ccc(-c4cccc(F)c4)cn3)[C@H]12	AUC at 4 h [2]: 3.55 µM·h; Cmax [3]: 1520 nM
25 nM	C[C@H]1OC(=O)[C@@H]2C[C@@H]3CCCC[C@H]3[C@H](/C=C/c3ccc(-c4cccc(Br)c4)cn3)[C@H]12	–
22 nM	C[C@H]1OC(=O)[C@@H]2C[C@@H]3CCCC[C@H]3[C@H](/C=C/c3ccc(-c4ccccc4F)cn3)[C@H]12	AUC at 4 h [2]: 2.47 µM·h; Cmax [3]: 1080 nM
10 nM	C[C@H]1OC(=O)[C@@H]2C[C@@H]3CCCC[C@H]3[C@H](/C=C/c3ccc(-c4cccc(Cl)c4)cn3)[C@H]12	AUC at 4 h [2]: 4.11 µM·h; Cmax [3]: 1460 nM
11 nM	COc1ccccc1-c1ccc(/C=C/[C@H]2[C@@H]3CCCC[C@H]3C[C@H]3C(=O)O[C@H](C)[C@@H]23)nc1	AUC at 4 h [2]: 0.413 µM·h; Cmax [3]: 419 nM
–	C[C@H]1OC(=O)[C@@H]2C[C@@H]3CCCC[C@H]3[C@H](/C=C/c3ccc(-c4cccc(C(F)(F)F)c4)cn3)[C@H]12	half-life [6]: 12.4 h; bioavailability [7]: 30%; AUC at 4 h [2]: 6.12 µM·h; Cmax [3]: 2300 nM; bioavailability [8]: 50%; Cmax [9]: 1160 nM; half-life [10]: 3.2 h
46 nM	C[C@H]1OC(=O)[C@@H]2C[C@@H]3CCCC[C@H]3[C@H](/C=C/c3ccc(-c4ccccc4C(F)(F)F)cn3)[C@H]12	AUC at 4 h [2]: 2.35 µM·h; Cmax [3]: 1000 nM
28 nM	COc1cccc(-c2ccc(/C=C/[C@H]3[C@@H]4CCCC[C@H]4C[C@H]4C(=O)O[C@H](C)[C@@H]34)nc2)c1	AUC at 4 h [2]: 0.012 µM·h; Cmax [3]: 20 nM
26 nM	C[C@H]1OC(=O)[C@@H]2C[C@@H]3CCCC[C@H]3[C@H](/C=C/c3ccc(-c4ccccc4Cl)cn3)[C@H]12	AUC at 4 h [2]: 4.29 µM·h; Cmax [3]: 1780 nM
44 nM	CCOC(=O)c1ccccc1-c1ccc(/C=C/[C@H]2[C@@H]3CCCC[C@H]3C[C@H]3C(=O)O[C@H](C)[C@@H]23)nc1	–
–	Cc1ccccc1-c1ccc(/C=C/[C@H]2[C@@H]3CCCC[C@H]3C[C@H]3C(=O)O[C@H](C)[C@@H]23)nc1	AUC at 4 h [2]: 2.81 µM·h; Cmax [3]: 1220 nM
25 nM	C[C@H]1OC(=O)[C@@H]2C[C@@H]3CCCC[C@H]3[C@H](/C=C/c3ccc(-c4cccc(C#N)c4)cn3)[C@H]12	–
325 nM	Cc1ccc(-c2ccc(/C=C/[C@H]3[C@@H]4CCCC[C@H]4C[C@H]4C(=O)O[C@H](C)[C@@H]34)nc2)cc1 (racemic)	–
143 nM	CCCCc1cccc(/C=C/[C@H]2[C@@H]3CCCC[C@H]3C[C@H]3C(=O)O[C@H](C)[C@@H]23)n1 (racemic)	–
325 nM	COc1ccc(/C=C/[C@H]2[C@@H]3CCCC[C@H]3C[C@H]3C(=O)O[C@H](C)[C@@H]23)nc1 (racemic)	–
3680 nM	C[C@H]1OC(=O)[C@@H]2C[C@@H]3CCCC[C@H]3[C@H](/C=C/c3ccc(Cc4ccccc4)cn3)[C@H]12 (racemic)	–

IC50 [1]	SMILES	other results
1500 nM	C[C@H]1OC(=O)[C@@H]2C[C@@H]3CCCC[C@H]3[C@H](/C=C/c3cccc(CO)n3)[C@H]12 (racemic)	–
4000 nM	C[C@H]1OC(=O)[C@@H]2C[C@@H]3CCCC[C@H]3[C@H](/C=C/c3ccccn3)[C@H]12 (racemic)	–
850 nM	COCc1cccc(/C=C/[C@H]2[C@@H]3CCCC[C@H]3C[C@H]3C(=O)O[C@H](C)[C@@H]23)n1 (racemic)	–
900 nM	C[C@H]1OC(=O)[C@@H]2C[C@@H]3CCCC[C@H]3[C@H](/C=C/c3cccc(Cc4ccccc4)n3)[C@H]12 (racemic)	–
150 nM	C=Cc1cccc(/C=C/[C@H]2[C@@H]3CCCC[C@H]3C[C@H]3C(=O)O[C@H](C)[C@@H]23)n1 (racemic)	–
1250 nM	CNc1cccc(/C=C/[C@H]2[C@@H]3CCCC[C@H]3C[C@H]3C(=O)O[C@H](C)[C@@H]23)n1 (racemic)	–
204 nM	COc1ccc(-c2ccc(/C=C/[C@H]3[C@@H]4CCCC[C@H]4C[C@H]4C(=O)O[C@H](C)[C@@H]34)nc2)cc1 (racemic)	–
725 nM	CC(C)c1cccc(/C=C/[C@H]2[C@@H]3CCCC[C@H]3C[C@H]3C(=O)O[C@H](C)[C@@H]23)n1 (racemic)	–
550 nM	CC(C)Cc1cccc(/C=C/[C@H]2[C@@H]3CCCC[C@H]3C[C@H]3C(=O)O[C@H](C)[C@@H]23)n1 (racemic)	–
467 nM	C[C@H]1OC(=O)[C@@H]2C[C@@H]3CCCC[C@H]3[C@H](/C=C/c3ccc(-c4ccc(F)cc4)cn3)[C@H]12 (racemic)	–
1100 nM	Cc1ccc(/C=C/[C@H]2[C@@H]3CCCC[C@H]3C[C@H]3C(=O)O[C@H](C)[C@@H]23)nc1 (racemic)	–
> 300 nM	C[C@H]1OC(=O)[C@@H]2C[C@@H]3CCCC[C@H]3[C@H](/C=C/c3ccc(-c4ccc(C(F)(F)F)cc4)cn3)[C@H]12 (racemic)	–
210 nM	C[C@H]1OC(=O)[C@@H]2C[C@@H]3CCCC[C@H]3[C@H](/C=C/c3cccc(C4CC4)n3)[C@H]12 (racemic)	–
250 nM	CCCc1cccc(/C=C/[C@H]2[C@@H]3CCCC[C@H]3C[C@H]3C(=O)O[C@H](C)[C@@H]23)n1 (racemic)	–
> 5000 nM	Cc1cccnc1/C=C/[C@H]1[C@@H]2CCCC[C@H]2C[C@H]2C(=O)O[C@H](C)[C@@H]12 (racemic)	–
1000 nM	C[C@H]1OC(=O)[C@@H]2C[C@@H]3CCCC[C@H]3[C@H](/C=C/c3ccc(-c4ccc(Cl)cc4)cn3)[C@H]12 (racemic)	–
19 nM	C[C@H]1OC(=O)[C@@H]2C[C@@H]3CCCC[C@H]3[C@H](/C=C/c3ccc(OCc4ccccc4)cn3)[C@H]12 (racemic)	–
2100 nM	Cc1ccnc(/C=C/[C@H]2[C@@H]3CCCC[C@H]3C[C@H]3C(=O)O[C@H](C)[C@@H]23)c1 (racemic)	–
–	COc1cccc(/C=C/[C@H]2[C@@H]3CCCC[C@H]3C[C@H]3C(=O)O[C@H](C)[C@@H]23)n1 (racemic)	IC50 [11]: Not Active
–	C[C@H]1OC(=O)[C@@H]2C[C@@H]3CCCC[C@H]3[C@H](/C=C/c3cccc(-c4ccccc4)n3)[C@H]12 (racemic)	IC50 [11]: Not Active
3500 nM	CCCCCCc1cccc(/C=C/[C@H]2[C@@H]3CCCC[C@H]3C[C@H]3C(=O)O[C@H](C)[C@@H]23)n1 (racemic)	–
